# In patent US9963445B2, “Chemical compounds” (SYNGENTA PARTICIPATIONS AG, priority 2013, dated 2018):
# Tests used:
# Format in all cases: in vivo
# Abutilon theophrasti [1] = assay: Post-emergence herbicidal activity, glasshouse pot test; set-up: key: 0 = no damage to plant, 5 = total damage to plant; conditions: Application post-emergence, rate 1000 g/ha, evaluated after 13 days
# Summary of the method: (§1)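 Test solution: technical active ingredient in acetone/water (50:50) containing 0.5% Tween 20, applied as an aqueous spray to 8-day-old plants. Evaluation at 13 days, 0–5 damage scale.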
# Echinochloa crus-galli [2] = assay: as above; set-up: key: 0 = no damage to plant, 5 = total damage to plant; conditions: Application post-emergence, rate 1000 g/ha, evaluated after 13 days
# Summary of the method: as §1
# Alopecurus myosuroides [3] = assay: as above; set-up: key: 0 = no damage to plant, 5 = total damage to plant; conditions: Application post-emergence, rate 1000 g/ha, evaluated after 13 days
# Summary of the method: as §1
# zea mays [4] = assay: as above; set-up: key: 0 = no damage to plant, 5 = total damage to plant; conditions: Application post-emergence, rate 1000 g/ha, evaluated after 13 days
# Summary of the method: as §1
# Setaria faberi [5] = assay: as above; set-up: key: 0 = no damage to plant, 5 = total damage to plant; conditions: Application post-emergence, rate 1000 g/ha, evaluated after 13 days
# Summary of the method: as §1
# Amaranthus retroflexus [6] = assay: as above; set-up: key: 0 = no damage to plant, 5 = total damage to plant; conditions: Application post-emergence, rate 1000 g/ha, evaluated after 13 days
# Summary of the method: as §1
# Abutilon theophrasti [7] = assay: Pre-emergence herbicidal activity, glasshouse pot test; conditions: pre-emergence spray, rate 1000 g/ha, evaluated after 13 days, scale 0-5
# Summary of the method: (§2)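 Damage was rated at 13 days from 0 (none) to 5 (total), in a glasshouse kept at 24/16 °C, 14 h light and 65% humidity with watering twice daily. The aqueous spray of active ingredient in 50:50 acetone/water plus 0.5% Tween 20 was applied to soil one day post-sowing, before emergence.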
# Echinochloa crus-galli [8] = assay: as above; conditions: pre-emergence spray, rate 1000 g/ha, evaluated after 13 days, scale 0-5
# Summary of the method: as §2
# Alopecurus myosuroides [9] = assay: as above; conditions: pre-emergence spray, rate 1000 g/ha, evaluated after 13 days, scale 0-5
# Summary of the method: as §2
# zea mays [10] = assay: as above; conditions: pre-emergence spray, rate 1000 g/ha, evaluated after 13 days, scale 0-5
# Summary of the method: as §2
# Setaria faberi [11] = assay: as above; conditions: pre-emergence spray, rate 1000 g/ha, evaluated after 13 days, scale 0-5
# Summary of the method: as §2
# Amaranthus retroflexus [12] = assay: as above; conditions: pre-emergence spray, rate 1000 g/ha, evaluated after 13 days, scale 0-5
# Summary of the method: as §2
SMILES,ABUTH herbicidal damage score (Abutilon theophrasti [1]),ECHCG herbicidal damage score (Echinochloa crus-galli [2]),ALOMY herbicidal damage score (Alopecurus myosuroides [3]),ZEAMX herbicidal damage score (zea mays [4]),SETFA herbicidal damage score (Setaria faberi [5]),AMARE herbicidal damage score (Amaranthus retroflexus [6]),"ABUTH damage score, application pre-emergence (Abutilon theophrasti [7])","ECHCG damage score, application pre-emergence (Echinochloa crus-galli [8])","ALOMY damage score, application pre-emergence (Alopecurus myosuroides [9])","ZEAMX damage score, application pre-emergence (zea mays [10])","SETFA damage score, application pre-emergence (Setaria faberi [11])","AMARE damage score, application pre-emergence (Amaranthus retroflexus [12])"
COc1nnc(N2C(=O)C(Cl)=C(C)C2O)cc1C (stereo not drawn) [BF6],5,5,5,4,5,5,4,5,3,2,3,5
CC1=C(Cl)C(=O)N(c2ccc(C(F)(F)F)nn2)C1O (stereo not drawn) [BF7],2,3,2,2,4,2,4,3,2,1,4,4
COc1ccc(N2C(=O)C(Cl)=C(C)C2O)nn1 (stereo not drawn) [BF8],5,5,4,1,5,5,5,4,2,0,3,1
CC1=C(Cl)C(=O)N(c2cc(C(C)C)c(Cl)nn2)C1O (stereo not drawn) [BF10],5,5,5,3,5,5,4,5,4,2,5,3
CC1=C(Cl)C(=O)N(c2cc(C(C)(C)F)c(Cl)nn2)C1O (stereo not drawn) [BF11],2,3,2,1,3,2,0,0,0,0,0,0
CC1=C(Cl)C(=O)N(c2cc(C(C)(F)F)c(Cl)nn2)C1O (stereo not drawn) [BF12],4,5,4,3,5,5,3,4,3,2,4,5
CCc1cc(N2C(=O)C(Cl)=C(C)C2O)nnc1Cl (stereo not drawn) [BF13],3,5,4,1,5,3,2,4,2,1,5,4
CC1=C(Cl)C(=O)N(c2ccc(C#N)nn2)C1O (stereo not drawn) [BF14],1,2,2,1,3,2,5,2,1,0,0,4
COC1=C(C)C(O)N(c2cc(C)c(OC)nn2)C1=O (stereo not drawn) [BG1],5,5,4,4,5,5,2,4,3,1,2,5
COC1=C(C)C(O)N(c2cc(C(C)(C)C)c(Cl)nn2)C1=O (stereo not drawn) [BI1],5,5,5,4,5,5,4,5,4,4,5,3
COC1=C(C)C(O)N(c2cc(C(C)C)c(Cl)nn2)C1=O (stereo not drawn) [BI2],5,5,5,3,5,5,4,5,4,3,5,4
COC1=C(C)C(O)N(c2cc3c(nn2)CCCC3)C1=O (stereo not drawn) [BI3],2,3,3,1,5,3,0,4,1,0,0,2
CCOC(=O)c1ccc(N2C(=O)C(OC)=C(C)C2O)nn1 (stereo not drawn) [BI4],0,0,0,0,0,0,0,0,0,0,0,0
COC1=C(C)C(O)N(c2cc(C)c(C#N)nn2)C1=O (stereo not drawn) [BI5],0,0,0,0,0,0,0,0,0,0,0,0
COC1=C(C)C(O)N(c2ccc(C(=O)NC(C)(C)C)nn2)C1=O (stereo not drawn) [BI6],5,5,4,4,5,5,5,4,4,2,5,5
COC1=C(C)C(O)N(c2ccc(C(=O)NC(C)(C)C#N)nn2)C1=O (stereo not drawn) [BI7],4,4,4,2,5,5,4,3,3,1,4,5
